Assay results published in PubChem BioAssay AID463089 (NMMLSC, 2010).
Calls of active or inactive are those of the source.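 Rule for the calls: active = compound whose binding-signal loss grows with dose, reaching half its maximum below 10 micromolar; inactive = the rest.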

What was measured:
[1] = MEKK2 PB1 heterodimer disruption – biochemical, TR-FRET, Eu and Cy5 interference panels, dose response (AID 463089); details: TR-FRET MEKK2-MEK5 PB1 binding; for response (panel-specific, % change): at 30 µM (top of the series)
[2] = molecular target: Mitogen-activated protein kinase kinase kinase 2 (Homo sapiens) (UniProt Q9Y2U5); test: as above; details: TR-FRET MEKK2-MEK5 PB1 binding, TR-FRET binding assay; for response (panel-specific, % change): at 30 µM (top of the series)
Sequence of Mitogen-activated protein kinase kinase kinase 2 (Homo sapiens) (Q9Y2U5 whole entry, looked up): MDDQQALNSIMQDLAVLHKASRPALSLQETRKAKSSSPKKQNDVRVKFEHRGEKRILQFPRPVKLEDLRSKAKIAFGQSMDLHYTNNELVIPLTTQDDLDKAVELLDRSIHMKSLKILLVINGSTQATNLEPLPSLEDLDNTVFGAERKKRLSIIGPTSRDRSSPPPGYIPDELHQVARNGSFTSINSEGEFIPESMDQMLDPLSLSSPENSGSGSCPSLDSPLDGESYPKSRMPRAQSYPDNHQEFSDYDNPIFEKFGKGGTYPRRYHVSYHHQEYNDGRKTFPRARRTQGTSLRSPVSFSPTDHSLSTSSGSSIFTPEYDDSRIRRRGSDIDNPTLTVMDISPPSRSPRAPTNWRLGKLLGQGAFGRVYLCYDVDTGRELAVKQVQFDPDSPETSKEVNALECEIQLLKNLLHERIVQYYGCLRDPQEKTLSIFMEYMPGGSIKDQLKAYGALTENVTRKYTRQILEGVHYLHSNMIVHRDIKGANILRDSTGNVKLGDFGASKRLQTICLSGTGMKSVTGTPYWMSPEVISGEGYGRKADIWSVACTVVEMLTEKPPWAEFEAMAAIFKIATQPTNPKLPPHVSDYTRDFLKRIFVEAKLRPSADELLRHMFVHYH

[3] = Cy5 fluorescence 665 nm counterscreen
[4] = Eu fluorescence 620 nm counterscreen

Row | Structure (SMILES) | response (panel-specific, % change) [1, 3] | response (panel-specific, % change) [1, 4] | EC50 [2] | EC50 [1, 4] | response (panel-specific, % change) [2] | EC50 [1, 3]
1 | COc1cccc(OC)c1-c1nn2c(-c3cc(-c4ccccc4)n[nH]3)nnc2s1 | inactive | inactive | 2200 nM | – | – | –
2 | CCNc1ccc2noc3c2c1C(=O)c1ccccc1-3 | inactive | – | 3500 nM | 1600 nM | – | –
3 | CCN1/C(=C/C(C)=C/c2sc3ccccc3[n+]2CC)Sc2ccccc21 | inactive | – | – | 2000 nM | inactive | –
4 | Nc1cc2nc[nH]c2cc1N | inactive | – | 2000 nM | 1500 nM | – | –

More lines, now with the values ahead:

Row | response (panel-specific, % change) [1, 3] | response (panel-specific, % change) [1, 4] | EC50 [2] | EC50 [1, 4] | response (panel-specific, % change) [2] | EC50 [1, 3] | Structure (SMILES)
5 | inactive | inactive | – | – | – | – | CN1CCN(c2ccc(NC(=O)c3ccc(-c4ccc(Cl)cc4)o3)cc2)CC1
6 | – | – | – | 1900 nM | inactive | 4100 nM | CCC(=C/c1sc2ccc3ccccc3c2[n+]1C)/C=C1\Sc2ccc3ccccc3c2N1C
